# Source: patent publication US20240270762A1, “PENICILLIN-BINDING PROTEIN INHIBITORS” (priority 2021, published 2024)
# Assays:
# E. coli D22 = test: microbe, parasite or virus in culture; assay type: cell-based; conditions: Escherichia coli, D22, read-out: MIC E. coli D22
# E. coli 901C = test: microbe, parasite or virus in culture; assay type: cell-based; conditions: Escherichia coli, read-out: MIC E. coli 901C
# [1] = system: P. aeruginosa (ΔmexAB-oprM); test: Broth microdilution MIC in CAMHB; assay type: cell-based; conditions: Pseudomonas aeruginosa; read-out: MIC P. aeruginosa ΔmexAB-oprM
# K. pneumoniae 848844 = test: microbe, parasite or virus in culture; assay type: cell-based; conditions: Klebsiella pneumoniae, 848844, read-out: MIC K. pneumoniae 848844
# E. coli AG100 = test: microbe, parasite or virus in culture; assay type: cell-based; conditions: Escherichia coli, AG100, read-out: MIC E. coli AG100
# K. pneumoniae UMM = test: microbe, parasite or virus in culture; assay type: cell-based; conditions: Klebsiella pneumoniae, read-out: MIC K. pneumoniae UMM
# E. coli ATCC 25922 = test: microbe, parasite or virus in culture; assay type: cell-based; conditions: Escherichia coli, ATCC25922, read-out: MIC E. coli 25922
# P. aeruginosa ATCC 27853 = test: microbe, parasite or virus in culture; assay type: cell-based; conditions: Pseudomonas aeruginosa, ATCC27853, read-out: MIC P. aeruginosa ATCC 27853
# [2] = molecular target: T1, PBP3 from Escherichia coli (K-12) (Escherichia coli, UniProt P0AD68); test: Bocillin-FL fluorescence polarization competition binding, E. coli PBP3
# T1 construct: made in house
# T1 sequence (P0AD68 1-577): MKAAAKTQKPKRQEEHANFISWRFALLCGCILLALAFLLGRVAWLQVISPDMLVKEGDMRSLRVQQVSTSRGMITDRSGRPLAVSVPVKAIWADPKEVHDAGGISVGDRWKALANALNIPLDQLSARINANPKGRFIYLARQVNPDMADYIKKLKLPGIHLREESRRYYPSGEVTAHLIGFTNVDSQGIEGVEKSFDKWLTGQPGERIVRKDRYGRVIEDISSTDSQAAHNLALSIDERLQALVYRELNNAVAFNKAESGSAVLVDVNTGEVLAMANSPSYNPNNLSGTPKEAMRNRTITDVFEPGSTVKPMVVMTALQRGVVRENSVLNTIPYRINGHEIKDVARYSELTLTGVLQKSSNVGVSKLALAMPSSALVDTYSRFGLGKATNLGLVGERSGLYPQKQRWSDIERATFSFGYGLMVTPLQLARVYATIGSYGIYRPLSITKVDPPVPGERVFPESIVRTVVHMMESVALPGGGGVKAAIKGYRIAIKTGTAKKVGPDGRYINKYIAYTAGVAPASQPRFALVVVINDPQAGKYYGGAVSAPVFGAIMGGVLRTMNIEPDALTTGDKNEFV
# From the text: (§1) To determine the ability of boronic acid-based test PBP inhibitors to bind Penicillin Binding Proteins (PBPs), Bocillin-FL (fluorescently-labeled penicillin V; ThermoFisher Scientific) was used in a fluorescence polarization (FP) competition binding assay to assess inhibitor binding to PBP3 from Escherichia coli (K-12), PBP3 from Pseudomonas aeruginosa (PAO1), PBP1a and PBP3 from Acinetobacter baumannii (ATCC 19606), and PBP2 from Neisseria gonorrhoeae (FA19). PBPs were cloned and purified as described previously (E. coli PBP3, King, D. T, et al., ACS Infectious Diseases 2015, 1, 175-184; P. aeruginosa PBP3, Han et. al., PNAS 2010, 107 (51), 22002-22007; A. baumannii PBPs, Penwell et. al., Antimicrob. Agents Chemother. 2015, 59 (3), 1680-1689; N. gonorrhoeae PBP2, Singh et. al., J. Biol. Chem. 2019, 294 (38), 14020-14032). To establish assay conditions for competition binding, enzyme titration/saturation binding experiments were initially performed. Bocillin-FL was prepared at 0.2 μM in a buffer comprised of 50 mM Hepes (pH 8.0), 300 mM NaCl and 10% (v/v) glycerol for reactions with E. coli, P. aeruginosa and N. gonorrhoeae PBPs, and 25 mM Tris (pH 8.0), 200 mM NaCl, 10% (v/v) glycerol and 0.005% (v/v) Tween 20 for reactions with A. baumannii PBPs. Saturation binding was performed by mixing 40 μl of PBP solutions ranging in concentrations from 0-24 μM with 40 μl of the 0.2 μM Bocillin-FL solution, in individual wells of a black 384-well microplate. FP was measured immediately upon mixing (Excitation, 490 nm; Emission, 520 nm; g-factor, 0.96), using a Cytation3 (BioTek) microplate reader and measured continuously for up to 120 minutes. The FP response stabilized after 15 minutes for P. aeruginosa and A. baumannii PBP3, 30 minutes for E. coli PBP3 and A. baumannii PBP1a, and less than 1 minute for N. gonorrhoeae PBP2. […] The competition binding assay (80 μl final volume) was validated using beta-lactams and PBPs at final concentrations of: 1.5 μM for E. coli PBP3; 0.75 μM for P. aeruginosa PBP3; 1 μM for A. baumannii PBP1a; 0.2 μM for A. baumannii PBP3; and 0.25 μM for N. gonorrhoeae PBP2. Bocillin-FL was at 0.1 μM (0.05 μM with A. baumannii PBP1a) and beta-lactam concentrations ranged from 0-1,000 μM. E. coli PBP3 was incubated with increasing concentrations of ampicillin in a black 384-well microplate (Corning) for 30 minutes. P. aeruginosa PBP3 was incubated for 15 minutes with aztreonam, whereas A. baumannii PBP1a and PBP3 were incubated for 15 minutes with meropenem, and then Bocillin-FL was added followed immediately by the FP measurement for up to 60 minutes. […] The beta-lactam potency was reported as the concentration of beta-lactam required to reduce the amount of PBP bound-Bocillin-FL by 50% (EC50). […] The EC50 of aztreonam was determined to be <0.5 μM for P. aeruginosa PBP3. […] Binding assays for boronic acid PBP inhibitors were performed in an identical fashion for the respective PBPs.
# K. pneumoniae SI-117 = test: microbe, parasite or virus in culture; assay type: cell-based; conditions: Klebsiella pneumoniae, SI117, read-out: MIC K. pneumoniae SI-117
# P. aeruginosa ATCC 35151 = test: microbe, parasite or virus in culture; assay type: cell-based; conditions: Pseudomonas aeruginosa, ATCC35151, read-out: MIC P. aeruginosa ATCC 35151
# E. coli AG100A = test: Broth microdilution MIC in CAMHB; assay type: cell-based; conditions: Escherichia coli, read-out: MIC E. coli AG100A
# A. baumannii ATCC 19606 = test: microbe, parasite or virus in culture; assay type: cell-based; conditions: Acinetobacter baumannii, ATCC19606, read-out: MIC, A. baumannii ATCC 19606
# [3] = molecular target: T2, PBP3 from Pseudomonas aeruginosa (PAO1) (Pseudomonas aeruginosa, UniProt G3XD46); test: Bocillin-FL fluorescence polarization competition binding, P. aeruginosa PBP3; conditions: Binding affinity to P. aeruginosa PBP3; fluorescence polarization competition binding assay using Bocillin-FL; read-out: P. aeruginosa PBP3 Potency
# T2 construct: made in house
# T2 sequence (G3XD46 whole entry): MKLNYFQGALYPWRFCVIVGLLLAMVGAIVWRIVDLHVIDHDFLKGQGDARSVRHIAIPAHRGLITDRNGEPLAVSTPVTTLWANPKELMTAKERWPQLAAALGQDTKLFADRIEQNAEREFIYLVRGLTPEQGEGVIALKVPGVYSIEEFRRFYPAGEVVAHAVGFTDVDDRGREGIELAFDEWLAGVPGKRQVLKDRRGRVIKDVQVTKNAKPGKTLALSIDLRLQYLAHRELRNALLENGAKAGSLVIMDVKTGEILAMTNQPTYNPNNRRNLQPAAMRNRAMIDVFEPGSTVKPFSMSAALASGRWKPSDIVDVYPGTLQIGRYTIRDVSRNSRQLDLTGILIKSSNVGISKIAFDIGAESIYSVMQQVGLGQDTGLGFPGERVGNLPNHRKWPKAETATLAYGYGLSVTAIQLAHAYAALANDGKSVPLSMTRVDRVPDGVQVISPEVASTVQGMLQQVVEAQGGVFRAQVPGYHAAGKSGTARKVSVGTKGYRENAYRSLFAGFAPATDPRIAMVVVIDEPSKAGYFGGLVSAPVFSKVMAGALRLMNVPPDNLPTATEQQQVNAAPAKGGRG
# From the text: as §1
# N. gonorrhoeae WHO Z = test: Liquid broth MIC in Fastidious broth; conditions: Neisseria gonorrhoeae, read-out: Minimum Inhibitory Concentration, WHO Z
# N. gonorrhoeae FA1090 = test: Liquid broth MIC in Fastidious broth; conditions: Neisseria gonorrhoeae, FA1090, read-out: Minimum Inhibitory Concentration, FA 1090
# [4] = system: N. gonorrhoeae ATCC 49226; test: Liquid broth MIC in Fastidious broth; conditions: Neisseria gonorrhoeae, ATCC49226, read-out: Minimum Inhibitory Concentration, ATCC 49226
SMILES,MIC (E. coli D22) [µg/mL],MIC (E. coli 901C) [µg/mL],MIC [1] [µg/mL],MIC (K. pneumoniae 848844) [µg/mL],MIC (E. coli AG100) [µg/mL],MIC (K. pneumoniae UMM) [µg/mL],MIC (E. coli ATCC 25922) [µg/mL],MIC (P. aeruginosa ATCC 27853) [µg/mL],EC50 [2] [µM],MIC (K. pneumoniae SI-117) [µg/mL],MIC (P. aeruginosa ATCC 35151) [µg/mL],MIC (E. coli AG100A) [µg/mL],MIC (A. baumannii ATCC 19606) [µg/mL],IC50 [3] [µM],MIC (N. gonorrhoeae WHO Z) [µg/mL],MIC (N. gonorrhoeae FA1090) [µg/mL],MIC [4] [µg/mL]
"O=C(N[C@@H](C(=O)N[C@H]1Cc2cccc(C(=O)O)c2OB1O)c1ccc(P(=O)(O)O)cc1)c1cnc2ccnn2c1 (single isomer, unassigned) [Example 187]",32 to 64,8 to 16,32 to 64,> 128,> 128,> 128,> 128,> 128,10 to 50,> 128,2 to 4,> 128,> 128,< 10,–,–,–
"O=C(N[C@H](C(=O)N[C@H]1Cc2cccc(C(=O)O)c2OB1O)c1ccc(P(=O)(O)O)cc1)c1cnc2ccnn2c1 (single isomer, unassigned) [Example 186]",> 128,8 to 16,> 128,> 128,> 128,> 128,> 128,> 128,> 250,> 128,2 to 4,> 128,> 128,10 to 50,–,–,–
"O=C(NC(C(=O)N[C@H]1Cc2cccc(C(=O)O)c2OB1O)c1ccc(P(=O)(O)O)cc1)c1ccc2ccnn2c1 (stereo partly drawn) [Example 498, (3R)-2-hydroxy-3-(2-(4-phosphonophenyl)-2-(pyrazolo[1,5-a]pyridine-6-carboxamido)acetamido)-3,4-dihydro-2H-benzo[e][1,2]oxaborinine-8-carboxylic acid]",> 128,32 to 64,> 128,> 128,> 128,> 128,> 128,> 128,50 to 250,> 128,8 to 16,> 128,> 128,10 to 50,> 64,4 to 8,> 64
